Data taken from PMC5841303, “In silico screening for human norovirus antivirals reveals a novel non-nucleoside inhibitor of the viral polymerase” (Scientific Reports, 2018).
Structures can show the parent of a compound that is named as a salt. Where two headings read alike, the source gives them in different places.

Columns and labels:
norovirus RdRp = assay: Counter-screen gel-shift RdRp assay (primed elongation of PE44-NoV template); assay type: biochemical, human norovirus; settings: 10 µM
[1] = parameters: method as in PMID 24316032, PMID 24616282; settings: cited from earlier work
human norovirus RdRp = settings: cited from earlier work
human norovirus replicon = system: human norovirus replicon; parameters: method as in PMID 26392512; settings: cell culture; read-out: EC50 against the human norovirus replicon; cited from earlier work
human norovirus = system: human norovirus; parameters: method as in PMID 27210811; settings: read-out: EC50 against human norovirus in the B-cell culture system; cited from earlier work

For `Nc1nc2c(ncn2[C@@H]2O[C@H](COP(=O)(O)OP(=O)(O)OP(=O)(O)O)C[C@H]2O)c(=O)[nH]1` [3′dGTP, 3′-deoxyguanosine-5′-triphosphate], which “inhibition of transcription (gel-shift, positive control)” value (norovirus RdRp) is on record?
Its value is “complete inhibition”.

With `Cc1ccc(C(=O)Nc2ccc(S(=O)(=O)O)c3cc(S(=O)(=O)O)cc(S(=O)(=O)O)c23)cc1NC(=O)c1cccc(NC(=O)Nc2cccc(C(=O)Nc3cc(C(=O)Nc4ccc(S(=O)(=O)O)c5cc(S(=O)(=O)O)cc(S(=O)(=O)O)c45)ccc3C)c2)c1` [suramin] as the molecule, how does the cell membrane permeability [1] read?
Its cell membrane permeability is “poor cell membrane permeability”.

And the IC50 (human norovirus RdRp; enzymatic assays, read-out: IC50 against human norovirus RdRp)?
Its IC50 is 0.027 µM.

With `C[C@@]1(O)[C@H](O)[C@@H](CO)O[C@H]1n1ccc(N)nc1=O` [Compound 2CMC, 2′-C-methylcytidine] as the molecule, how does the IC50 (human norovirus RdRp; read-out: IC50 against human norovirus RdRp) read?
Its IC50 is 2.5 µM.

What about the EC50 (human norovirus replicon) of the same molecule?
Its EC50 is 8.2 µM.

What about the EC50 (human norovirus) of the same molecule?
Its EC50 is 0.3 µM.

With `CC1=N/C(=N/Nc2cc(S(=O)(=O)O)c3cc([N+](=O)[O-])cc(S(=O)(=O)O)c3c2)C(COP(=O)(O)O)=C(C=O)C1=O` [PPNDS, pyridoxal-5′-phosphate-6-(2′-naphthylazo-6′-nitro-4′,8′-disulfonate) tetrasodium salt] as the molecule, how does the cell membrane permeability [1] read?
The cell membrane permeability was “poor cell membrane permeability”.

And the IC50 (human norovirus RdRp; in vitro, read-out: IC50 against human norovirus RdRp activity)?
The IC50 was 0.45 µM.
